These results are taken from patent US10308643B2, “Heterocyclic compound” (Takeda Pharmaceutical Company Limited, priority 2015, dated 2019).

Common to all, as to format: biochemical
One assay concerns the target T1, HDAC6 enzyme (Homo sapiens, UniProt Q9UBN7).
T1 construct: transducing full length HDAC1 and HDAC6 genes into Sf-9 insect cells; GST; purchased SignalChem; host or cells: Sf-9 insect cells
T1 sequence (Q9UBN7 1-1215): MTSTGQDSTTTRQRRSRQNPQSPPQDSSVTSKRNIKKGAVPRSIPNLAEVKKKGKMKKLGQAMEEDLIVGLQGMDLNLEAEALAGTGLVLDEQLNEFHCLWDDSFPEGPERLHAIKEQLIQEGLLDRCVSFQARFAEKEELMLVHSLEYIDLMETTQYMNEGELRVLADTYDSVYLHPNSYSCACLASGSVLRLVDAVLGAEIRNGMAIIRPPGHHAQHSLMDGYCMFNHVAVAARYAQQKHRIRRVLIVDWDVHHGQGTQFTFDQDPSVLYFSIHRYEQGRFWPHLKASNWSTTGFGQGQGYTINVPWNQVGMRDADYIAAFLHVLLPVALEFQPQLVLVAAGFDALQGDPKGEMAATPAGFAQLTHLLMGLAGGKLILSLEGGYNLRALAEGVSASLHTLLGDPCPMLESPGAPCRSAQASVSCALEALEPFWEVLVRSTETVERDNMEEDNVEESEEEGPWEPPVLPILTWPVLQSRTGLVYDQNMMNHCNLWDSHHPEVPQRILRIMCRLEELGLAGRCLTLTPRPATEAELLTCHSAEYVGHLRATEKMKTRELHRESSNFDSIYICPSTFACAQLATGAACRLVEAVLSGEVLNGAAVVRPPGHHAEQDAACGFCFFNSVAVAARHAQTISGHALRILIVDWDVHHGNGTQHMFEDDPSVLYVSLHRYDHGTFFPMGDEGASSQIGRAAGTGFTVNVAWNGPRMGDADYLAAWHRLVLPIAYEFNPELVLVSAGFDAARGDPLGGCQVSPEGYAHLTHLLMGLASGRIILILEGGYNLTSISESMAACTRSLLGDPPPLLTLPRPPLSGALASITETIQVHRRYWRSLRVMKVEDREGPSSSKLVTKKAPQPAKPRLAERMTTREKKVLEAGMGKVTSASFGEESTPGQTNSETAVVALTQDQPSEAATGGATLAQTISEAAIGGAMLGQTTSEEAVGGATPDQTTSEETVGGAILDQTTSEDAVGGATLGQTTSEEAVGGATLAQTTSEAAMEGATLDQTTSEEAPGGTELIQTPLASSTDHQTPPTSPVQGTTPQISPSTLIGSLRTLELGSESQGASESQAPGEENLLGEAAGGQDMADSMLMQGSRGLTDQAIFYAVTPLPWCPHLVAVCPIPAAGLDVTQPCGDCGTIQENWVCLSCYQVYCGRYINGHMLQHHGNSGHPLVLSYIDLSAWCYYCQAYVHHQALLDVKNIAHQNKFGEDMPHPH
Kind of assay: HDAC1/6 Enzyme Inhibitory Assay (HDAC-Glo I/II Assay kit), HDAC6. Conditions: 1 μM test compound, wells without enzyme = 100% inhibition; for inhibition at 1 µM: read-out: HDAC6 inhibitory rate (%) (1 μM). Put shortly:
(§1)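 Steps: compound in pH 7.5 Tris buffer plus enzyme (full-length HDAC1 or HDAC6 from Sf-9, GST-purified), 60 min at room temperature; add HDAC-Glo substrate-developer; react 20 min; read luminescence. Relative activity is calculated against enzyme-free wells taken as full inhibition.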

A further assay addresses T2, HDAC1 enzyme (Homo sapiens, UniProt Q13547).
T2 construct: transducing full length HDAC1 and HDAC6 genes into Sf-9 insect cells; GST; purchased SignalChem; host or cells: Sf-9 insect cells
Kind of assay: HDAC1/6 Enzyme Inhibitory Assay (HDAC-Glo I/II Assay kit), HDAC1. Conditions: 1 μM test compound, wells without enzyme = 100% inhibition; for inhibition at 1 µM: read-out: HDAC1 inhibitory rate (%) (1 μM). Put shortly: as §1

Another assay has as its target T3, HDAC9 enzyme (Homo sapiens, UniProt Q9UKV0).
T3 construct: transducing full length HDAC9 gene into Sf-9 insect cells; made in house; host or cells: Sf-9 insect cells
As to the kind of experiment: HDAC9 Enzyme Inhibitory Assay (HDAC-Glo class IIa). The note with it: 1 μM test compound, wells without enzyme = 100% inhibition; for inhibition at 1 µM: read-out: HDAC9 inhibitory rate (%) (1 μM). The essentials: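 Luminescent HDAC-Glo class IIa readout after a 20 min room-temperature reaction; relative inhibition referenced to enzyme-free wells as 100%. Test compound first preincubated 60 min with Sf-9-expressed, Ni-NTA-purified full-length HDAC9 in pH 7.5 Tris buffer containing 135 mM NaCl, 0.6 mM glutathione and 0.01% Tween-20.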

T2 sequence (Q13547 whole entry): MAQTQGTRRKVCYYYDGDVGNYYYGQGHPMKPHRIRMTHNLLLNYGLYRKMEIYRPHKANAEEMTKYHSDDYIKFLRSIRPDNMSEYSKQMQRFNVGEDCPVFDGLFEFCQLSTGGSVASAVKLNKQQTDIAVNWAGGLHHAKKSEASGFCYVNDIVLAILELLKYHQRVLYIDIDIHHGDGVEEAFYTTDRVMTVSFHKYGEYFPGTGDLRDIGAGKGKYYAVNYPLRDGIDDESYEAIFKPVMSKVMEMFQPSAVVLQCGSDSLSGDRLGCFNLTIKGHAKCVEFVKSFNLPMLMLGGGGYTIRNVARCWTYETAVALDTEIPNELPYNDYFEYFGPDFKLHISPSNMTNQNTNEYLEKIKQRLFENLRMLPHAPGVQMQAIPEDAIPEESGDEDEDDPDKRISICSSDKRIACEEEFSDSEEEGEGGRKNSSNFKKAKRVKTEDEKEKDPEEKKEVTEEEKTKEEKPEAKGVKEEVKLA
T3 sequence (Q9UKV0 whole entry, species assumed): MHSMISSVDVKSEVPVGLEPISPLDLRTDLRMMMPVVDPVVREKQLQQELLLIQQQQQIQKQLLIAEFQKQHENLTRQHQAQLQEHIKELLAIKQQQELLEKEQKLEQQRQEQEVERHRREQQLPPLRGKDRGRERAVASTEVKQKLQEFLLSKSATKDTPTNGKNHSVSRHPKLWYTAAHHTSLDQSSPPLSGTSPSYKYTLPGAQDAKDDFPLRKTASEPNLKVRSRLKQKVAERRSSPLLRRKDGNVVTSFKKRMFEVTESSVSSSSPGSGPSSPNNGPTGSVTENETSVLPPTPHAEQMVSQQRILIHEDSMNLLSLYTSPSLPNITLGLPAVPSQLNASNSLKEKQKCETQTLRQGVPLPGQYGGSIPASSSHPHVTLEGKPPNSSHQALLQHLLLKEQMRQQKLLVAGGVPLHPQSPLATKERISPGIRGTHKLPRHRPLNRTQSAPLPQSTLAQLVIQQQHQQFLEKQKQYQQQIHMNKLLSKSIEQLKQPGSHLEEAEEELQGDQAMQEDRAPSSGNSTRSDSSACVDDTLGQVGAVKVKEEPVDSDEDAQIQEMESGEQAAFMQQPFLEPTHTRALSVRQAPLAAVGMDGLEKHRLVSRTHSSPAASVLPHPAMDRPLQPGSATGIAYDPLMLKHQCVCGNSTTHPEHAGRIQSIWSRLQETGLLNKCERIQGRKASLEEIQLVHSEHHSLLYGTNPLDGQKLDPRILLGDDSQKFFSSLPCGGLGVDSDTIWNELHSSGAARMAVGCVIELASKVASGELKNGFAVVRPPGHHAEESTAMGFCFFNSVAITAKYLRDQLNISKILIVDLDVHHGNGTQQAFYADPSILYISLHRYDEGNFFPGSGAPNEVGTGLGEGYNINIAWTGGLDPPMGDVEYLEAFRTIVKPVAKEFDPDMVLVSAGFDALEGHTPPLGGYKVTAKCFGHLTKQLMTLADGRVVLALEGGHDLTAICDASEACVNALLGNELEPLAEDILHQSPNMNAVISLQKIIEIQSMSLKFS

With `N[C@H]1CCCC[C@H]1N1Cc2ccc(-c3noc(C(F)(F)F)n3)cc2C1=O` (relative stereo) [Example 199, 2-(cis-2-aminocyclohexyl)-6-(5-(trifluoromethyl)-1,2,4-oxadiazol-3-yl)isoindolin-1-one], the inhibition at 1 µM at HDAC6 enzyme turned out to be 68%; on HDAC1 enzyme, 5%; at HDAC9 enzyme, 75%.

Regarding `CC1(C(=O)N[C@@H]2CCCC[C@@H]2N2Cc3ccc(-c4noc(C(F)(F)F)n4)cc3C2=O)COC1` (relative stereo) [Example 200, 3-methyl-N-(cis-2-(1-oxo-6-(5-(trifluoromethyl)-1,2,4-oxadiazol-3-yl)-1,3-dihydro-2H-isoindol-2-yl)cyclohexyl)oxetane-3-carboxamide], the figures for the inhibition at 1 µM on HDAC6 enzyme, at HDAC1 enzyme and on HDAC9 enzyme were 96%, 35% and 85%, respectively.

For `CC(CO)(CCl)C(=O)N[C@@H]1CCCC[C@H]1N1Cc2ccc(-c3noc(C(F)(F)F)n3)cc2C1=O` (relative stereo) [Example 203, 3-chloro-2-(hydroxymethyl)-2-methyl-N-(trans-2-(1-oxo-6-(5-(trifluoromethyl)-1,2,4-oxadiazol-3-yl)-1,3-dihydro-2H-isoindol-2-yl)cyclohexyl)propanamide], the inhibition at 1 µM on HDAC6 enzyme turned out to be 100%; on HDAC1 enzyme, 8%; on HDAC9 enzyme it was 69%.

As to `CC(CO)(CCl)C(=O)N[C@@H]1CCCC[C@H]1N1Cc2ccc(-c3noc(C(F)(F)F)n3)cc2C1=O` (relative stereo) [Example 204, 3-chloro-2-(hydroxymethyl)-2-methyl-N-(trans-2-(1-oxo-6-(5-(trifluoromethyl)-1,2,4-oxadiazol-3-yl)-1,3-dihydro-2H-isoindol-2-yl)cyclohexyl)propanamide], on HDAC6 enzyme, the “HDAC6 inhibitory rate (%) (1 μM)” value worked out at 99%. Further, the “HDAC1 inhibitory rate (%) (1 μM)” value at HDAC1 enzyme came to 7%. On HDAC9 enzyme, the “HDAC9 inhibitory rate (%) (1 μM)” value worked out at 71%.

Take `O=C(N[C@@H]1CCOC[C@@H]1N1Cc2ccc(-c3noc(C(F)(F)F)n3)cc2C1=O)C1CC1(F)F` (single isomer, unassigned) [Example 211, (1R) or (1S)-2,2-difluoro-N-((3R,4R)-3-(1-oxo-6-(5-(trifluoromethyl)-1,2,4-oxadiazol-3-yl)-1,3-dihydro-2H-isoindol-2-yl)tetrahydro-2H-pyran-4-yl)cyclopropanecarboxamide]: the “HDAC6 inhibitory rate (%) (1 μM)” value at HDAC6 enzyme is given as 43%. Besides, the “HDAC1 inhibitory rate (%) (1 μM)” value on HDAC1 enzyme is reported as −1%. Further, on HDAC9 enzyme, the “HDAC9 inhibitory rate (%) (1 μM)” value came to 33%.

For the compound `O=C(N[C@@H]1CCOC[C@@H]1N1Cc2ccc(-c3noc(C(F)(F)F)n3)cc2C1=O)C1CC1(F)F` (single isomer, unassigned) [Example 212, (1R) or (1S)-2,2-difluoro-N-((3R,4R)-3-(1-oxo-6-(5-(trifluoromethyl)-1,2,4-oxadiazol-3-yl)-1,3-dihydro-2H-isoindol-2-yl)tetrahydro-2H-pyran-4-yl)cyclopropanecarboxamide], at HDAC6 enzyme, the “HDAC6 inhibitory rate (%) (1 μM)” value came to 82%. The “HDAC1 inhibitory rate (%) (1 μM)” value on HDAC1 enzyme was found to be 12%. In addition, on HDAC9 enzyme, the “HDAC9 inhibitory rate (%) (1 μM)” value turned out to be 58%.

In the case of `O=C(N[C@H]1CCOC[C@H]1N1Cc2ccc(-c3noc(C(F)(F)F)n3)cc2C1=O)C1CC1(F)F` (single isomer, unassigned) [Example 213, (1R) or (1S)-2,2-difluoro-N-((3S,4S)-3-(1-oxo-6-(5-(trifluoromethyl)-1,2,4-oxadiazol-3-yl)-1,3-dihydro-2H-isoindol-2-yl)tetrahydro-2H-pyran-4-yl)cyclopropanecarboxamide], the inhibition at 1 µM came to 96% at HDAC6 enzyme and 77% on HDAC9 enzyme. For the same compound, on HDAC1 enzyme, the “HDAC1 inhibitory rate (%) (1 μM)” value was determined as 31%.
